Article PMC12135066, “Design and Preclinical Evaluation of Novel uPAR-Targeting Radiopeptides Modified with an Albumin-Binding Entity” (Molecular Pharmaceutics, 2025)
Like-named read-outs stand apart in the source and are kept apart here.

What was measured:
in vivo = conditions: female, mouse, total radioactivity
Protocol: (§1) All applicable international, national, and/or institutional guidelines for the care and use of laboratory animals were followed, and the herein reported experiments were carried out according to the guidelines of the Swiss Regulations for Animal Welfare. The preclinical studies were ethically approved by the Cantonal Committee of Animal Experimentation and permitted by the responsible cantonal authorities (License No. 75721). Five-week-old female CD1/nude (Crl:CD1-Foxn ^ nu ) and female immunocompetent FVB (FVB/NCrl) mice were obtained from Charles River Laboratories (Sulzfeld, Germany). All mice were acclimatized for at least 7 days, receiving standard rodent chow ad libitum before being included in the reported studies. The CD1/nude mice were subcutaneously inoculated with HEK-uPAR cells (7 × 10^6 cells in 100 μL PBS) on the right shoulder. […] Typically, it took 3–11 weeks to reach xenograft volumes of 40–600 mm^3 at the time of testing the tissue distribution of the radiopeptides. The immunocompetent FVB mice were used for testing the in vivo stability of the radiopeptides.
(§2) The mice were injected with the radiopeptides (5 MBq, 0.5 nmol, 100 μL) in saline containing 0.05% BSA and sacrificed at 4 and 24 h after injection of the radiopeptides. Selected tissues and organs were collected, weighed, and measured with the γ-counter (1480 Wizard, PerkinElmer). […] A p-value of <0.05 was considered a statistically significant difference (GraphPad Prism software, version 8.3.1).
(§3) Decay-corrected data is shown as average ± SD of n = 3 animals of % injected activity per gram (IA/g) tissue.

human uPAR [1] = biological target: T1, human uPAR (Homo sapiens, UniProt Q03405); assay: uPAR-binding affinity (KD values), saturation experiments with HEK-uPAR cells; conditions: saturation binding on HEK-uPAR cells, on ice (4 °C) 1 h, 1–1600 nM radiopeptide, ± AE105 40 µM; γ-counter; nonlinear regression; average ± SD, n=3
T1 construct: host or cells: HEK cells (HEK-uPAR)
T1 sequence (Q03405 23-335): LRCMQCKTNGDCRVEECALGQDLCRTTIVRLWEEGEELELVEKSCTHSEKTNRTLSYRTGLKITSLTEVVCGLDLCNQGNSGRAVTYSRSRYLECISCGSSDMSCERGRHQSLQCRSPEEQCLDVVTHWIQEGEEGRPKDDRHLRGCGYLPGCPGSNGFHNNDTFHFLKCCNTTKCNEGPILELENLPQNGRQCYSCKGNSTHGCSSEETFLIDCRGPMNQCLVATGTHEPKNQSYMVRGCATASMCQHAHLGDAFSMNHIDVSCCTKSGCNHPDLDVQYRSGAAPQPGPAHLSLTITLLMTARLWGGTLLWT
Protocol: To determine the uPAR-binding affinity of the radiopeptides, saturation experiments were performed using HEK-uPAR cells in 48-well plates (Supporting Information). The cells were incubated on ice for 1 h in the presence or absence of excess AE105 (final concentration of 40 μM) together with the respective radiopeptide at a concentration range of 1–1600 nM. After rinsing the cells with PBS, they were lysed with an aqueous NaOH solution (1 M, 600 μL), transferred to radioimmunoassay tubes, and measured in a γ-counter (1480 Wizard, PerkinElmer). The K D values were determined by plotting the specific binding (values of samples incubated without AE105 minus the values of samples incubated with AE105) against the molar concentration of the added peptide. A nonlinear regression analysis was performed using GraphPad Prism software (version 8.3.1). The results were expressed as average ± SD of n = 3 independently performed experiments. […]
7. Determination of uPAR-Binding Affinity (KD Values)
Purpose: The uPAR-binding affinity of the radiopeptides were determined to investigate the impact of structural changes on the receptor binding.
Methods: HEK-uPAR cells were seeded in poly-D-lysine-coated 48-well plates (0.25 × 10 6 in 0.5 mL per well) using DMEM cell culture medium with supplements. The cells were incubated at 37 °C and 5% CO2 overnight to allow adhesion and growth. After removing the supernatant, the well plates with HEK-uPAR cells were placed on ice to prevent internalization of the radiopeptides. The cells were rinsed with cold PBS (0.5 mL, pH 7.4) followed by the addition of DMEM cell culture medium without supplements (450 µL/well) in the presence or absence of AE105 ( final concentration 40 µM) as a receptor-blocking agent. The radiopeptides (5 MBq/nmol) were diluted in PBS to obtain peptide concentrations ranging from 10 ‒16000 nM. From each dilution, 50 µL were added to each well to obtain final peptide concentrations of 1 nM to 1600 nM. The cells were incubated at 4 °C for 1 h before rinsing twice with PBS (0.5 mL, pH 7.4). The cells were lysed using an aqueous NaOH solution (1 M, 600 µL) and the lysates were transferred to RIA tubes for counting the activity in a γ-counter (1480 Wizard, PerkinElmer) . The KD values were determined by plotting specific binding (total binding minus unspecific binding) against the molar concentration of the added radiopeptide using GraphPad Prism (version 8.3.1). the results were then expressed as average K D values ± SD of n = 3 independent […]
Results: The results are reported in the main article.

physchem = conditions: pH 7.4
Protocol: The radiopeptides diluted in phosphate-buffered saline (PBS) pH 7.4 (25 μL, ∼0.5 MBq, 0.01 nmol) were added to a mixture of PBS pH 7.4 (1475 μL) and n-octanol (1500 μL). The vials were vortexed vigorously for 1 min, followed by centrifugation (560 rcf, 6 min) for phase separation. Aliquots were taken from each phase and measured in a γ-counter (1480 Wizard, PerkinElmer). The distribution coefficients were calculated as the logarithmic value of the ratio of counts per minute (cpm) measured in the n-octanol phase relative to the cpm measured in the PBS phase.
Methods: The logD value of all radiopeptides was determined in a mixture of n-octanol and phosphate
buffered saline (PBS) pH 7.4 using phase separation followed by liquid-liquid extraction.
polystyrene radioimmunoassay (RIA) tubes were prepared for each radiopeptide with 1.5 mL n-octanol
and 1.475 mL PBS pH 7.4. The RIA tubes were rigorously vortexed and subsequently let to stand so
that the phase separation could take place. The radiopeptides (50 MBq/nmol) were diluted with PBS
pH 7.4 to obtain an activity concentration of 10 MBq/0.5 mL. A volume of 25 μL of these solutions
was added to each RIA tube (25 µL, ~0.5 MBq, 0.01 nmol) followed by vortexing for 1 min.
separation was achieved by centrifugation at 560 rcf for 6 min. The activity in the n-octanol and PBS
phase, respectively, was measured in a γ-counter (Wallac Wizard 1480, PerkinElmer).
coefficients were calculated as the logarithm of the ratio of counts per minute (cpm) measured in the n-
octanol phase relative to the cpm measured in the PBS pH 7.4 phase.
as described above three independent times for each radiopeptide.

in vitro [2] = conditions: mouse, plasma
Protocol: (§4) The radiopeptides (50 MBq/nmol) stabilized with L-ascorbic acid were diluted in mouse and human blood plasma and incubated at 37 °C. Aliquots were taken after 1, 4, and 24 h and analyzed using reversed-phase thin-layer chromatography (TLC) (Supporting Information).
(§5) aProduct peak expressed as percentage of the sum of integrated peak areas of the entire chromatogram relative to
(§6) the value obtained immediately after labeling (set as 100%), average ± standard deviation (SD) (n=3).
(§7) Stability of the Radiopeptides in Mouse and Human Blood Plasma
(§8) Purpose: The stability of the radiopeptides was assessed in mouse and human blood plasma as an
indication for their in vivo stability.
(§9) Methods: The radiopeptides (50 MBq/nmol) stabilized with L-ascorbic acid were diluted in mouse
(§10) blood plasma (Lot: 32321, Rockland Immunochemicals Inc., U.S.A.) or in human blood plasma
(§11) (Stiftung Blutspende SRK Aargau -Solothurn, Switzerland) at a concentration of 10 MBq/200 µL and
(§12) incubated at 37 °C over a 24 h time period. Control samples were prepared by diluting the radiopeptides
(§13) in saline at the same activity concentration. Aliquots of each dilution were taken after 1 h, 4 h, and 24 h
(§14) (2 µL, ~100 kBq) and investigated employing thin layer chromatography (TLC) methods on reversed-
(§15) phase TLC plates (MERCK Analytical Chromatography, TLC Silica gel 60 RP -18 F254s) as stationary
(§16) phase and a 3/7 (v/v) mixture of acetonitrile /citrate buffer (0.1 M, pH 5.5) as mobile phase. A dilution
(§17) of [177Lu]LuCl3/HCl 0.04 M (10 MBq/200 µL) was added on each TLC plate. The developed and dried
(§18) TLC plates were exposed to a phosphor screen (Super resolution screen PSR10450013, PerkinElmer)
(§19) for 1 min. The screen was read with a Cyclone Plus phosphor imager (PerkinElmer) and the peak
(§20) quantification was performed using OptiQuant Software (version 5.0).

in vitro [3] = conditions: human, plasma
Protocol: as §4, §5, §6, §7, §8
indication for their in vivo stability.
as §9, §10, §11, §12, §13, §14, §15, §16, §17, §18, §19, §20

[4] = test system: HEK-uPAR xenograft-bearing nude mice; conditions: mouse, in vivo
Protocol: as §1, §2, §3

human uPAR [5] = biological target: T1, human uPAR; conditions: reported value; ref not printed (citation marks lost in b4); read-out: binding affinity to human uPAR (KD); cited from earlier work
Protocol: The expression pattern of uPAR makes it a relevant tumor-associated marker for targeting with diagnostic and therapeutic radiopharmaceuticals. Previously, a synthetic uPAR-binding nonapeptide, referred to as AE105, was identified using phage display methodologies and affinity maturation techniques. , The reported strong binding affinity to human uPAR (K D = 0.4 nM) made AE105 an interesting candidate for the development of nuclear imaging agents and radiotherapeutics. , AE105 was conjugated with various macrocyclic chelators to enable the coordination of copper-64, gallium-68, and lutetium-177 ...

[6] = CD1/nude (Crl:CD1-Foxn nu), 0.5 nmol, Blood
[7] = CD1/nude (Crl:CD1-Foxn nu), 0.5 nmol, HEK-uPAR xgft
[8] = CD1/nude, 5 MBq (0.5 nmol), Blood
[9] = CD1/nude, 5 MBq (0.5 nmol), Bone
[10] = CD1/nude, 5 MBq (0.5 nmol), Brain
[11] = CD1/nude, 5 MBq (0.5 nmol), Heart
[12] = CD1/nude, 5 MBq (0.5 nmol), Intestines
[13] = CD1/nude, 5 MBq (0.5 nmol), Kidneys
[14] = CD1/nude, 5 MBq (0.5 nmol), Liver
[15] = CD1/nude, 5 MBq (0.5 nmol), Lung
[16] = CD1/nude, 5 MBq (0.5 nmol), Muscle
[17] = CD1/nude, 5 MBq (0.5 nmol), Pancreas
[18] = CD1/nude, 5 MBq (0.5 nmol), Salivary glands
[19] = CD1/nude, 5 MBq (0.5 nmol), Spleen
[20] = CD1/nude, 5 MBq (0.5 nmol), Stomach
[21] = CD1/nude, 5 MBq (0.5 nmol), HEK-uPAR xgft

| Compound | tissue uptake at 24 h (in vivo; [6]) [%ID/g] | tissue uptake at 4 h (in vivo; [8]) [%ID/g] | tissue uptake at 4 h (in vivo; [9]) [%ID/g] | tissue uptake at 24 h (in vivo; [9]) [%ID/g] | tissue uptake at 4 h (in vivo; [10]) [%ID/g] | tissue uptake at 24 h (in vivo; [10]) [%ID/g] | tissue uptake at 4 h (in vivo; [11]) [%ID/g] | tissue uptake at 24 h (in vivo; [11]) [%ID/g] | tissue uptake at 4 h (in vivo; [12]) [%ID/g] | tissue uptake at 24 h (in vivo; [12]) [%ID/g] | tissue uptake at 4 h (in vivo; [13]) [%ID/g] | tissue uptake at 24 h (in vivo; [13]) [%ID/g] | tissue uptake at 4 h (in vivo; [14]) [%ID/g] | tissue uptake at 24 h (in vivo; [14]) [%ID/g] | tissue uptake at 4 h (in vivo; [15]) [%ID/g] | tissue uptake at 24 h (in vivo; [15]) [%ID/g] | tissue uptake at 4 h (in vivo; [16]) [%ID/g] | tissue uptake at 24 h (in vivo; [16]) [%ID/g] | tissue uptake at 4 h (in vivo; [17]) [%ID/g] | tissue uptake at 24 h (in vivo; [17]) [%ID/g] | also measured |
| --- | --- | --- | --- | --- | --- | --- | --- | --- | --- | --- | --- | --- | --- | --- | --- | --- | --- | --- | --- | --- | --- |
| CC(C)C[C@H](NC(=O)[C@H](Cc1ccc(O)cc1)NC(=O)[C@@H](CCCNC(=N)N)NC(=O)[C@@H](CO)NC(=O)[C@H](Cc1ccccc1)NC(=O)[C@H](CC1CCCCC1)NC(=O)[C@H](CC(=O)O)NC(=O)[C@H](CCCCNC(=O)CCOCCOCCOCCOCCNC(=O)CCCc1ccc(I)cc1)NC(=O)CN1CCN(CC(=O)O)CCN(CC(=O)O)CCN(CC(=O)O)CC1)C(=O)N[C@@H](Cc1c[nH]c2ccccc12)C(=O)N[C@@H](CO)C(N)=O [[^177Lu]Lu-uPAR-02, metal not drawn] | 6 ± 0.5 | 16 ± 1 | 1.8 ± 0.2 | 1.2 ± 0.1 | 0.34 ± 0.03 | 0.13 ± 0.02 | 4.8 ± 0.2 | 2.5 ± 0.3 | 1.8 ± 0.2 | 0.84 ± 0.13 | 5.5 ± 0.2 | 3.6 ± 0.2 | 2.8 ± 0.3 | 1.6 ± 0.2 | 7.2 ± 0.3 | 4 ± 0.2 | 1.4 ± 0.1 | 0.9 ± 0.06 | 1.8 ± 0.1 | 0.92 ± 0.06 | tissue uptake at 4 h (in vivo; [7]): 11 ± 2 %ID/g; tissue uptake at 24 h (in vivo; [7]): 10 ± 3 %ID/g; tissue uptake at 4 h (in vivo; [18]): 3.2 ± 0.4 %ID/g; tissue uptake at 24 h (in vivo; [18]): 1.8 ± 0.2 %ID/g; tissue uptake at 4 h (in vivo; [19]): 2.2 ± 0.1 %ID/g; tissue uptake at 24 h (in vivo; [19]): 2 ± 0.2 %ID/g; tissue uptake at 4 h (in vivo; [20]): 1.6 ± 0.3 %ID/g; tissue uptake at 24 h (in vivo; [20]): 0.69 ± 0.03 %ID/g; Kd (human uPAR [1]): 32 ± 12 nM; logD (physchem): 0.25 ± 0.02; remaining at 1 h, 10 MBq/200 µL (in vitro [2]): 100 ± 1%; remaining at 4 h, 10 MBq/200 µL (in vitro [2]): 98 ± 1%; remaining at 24 h, 10 MBq/200 µL (in vitro [2]): 98 ± 2%; remaining at 1 h, 10 MBq/200 µL (in vitro [3]): 100 ± 1%; remaining at 4 h, 10 MBq/200 µL (in vitro [3]): 99 ± 1%; remaining at 24 h, 10 MBq/200 µL (in vitro [3]): 99 ± 1%; fold higher activity retention in the HEK-uPAR xenograft than [177Lu]Lu-DOTA-AE105 [4]: over 10 fold; fold higher xenograft-to-kidney ratio than [177Lu]Lu-DOTA-AE105 [4]: > 3 fold |
| CC(C)C[C@H](NC(=O)[C@H](Cc1ccc(O)cc1)NC(=O)[C@@H](CCCNC(=N)N)NC(=O)[C@@H](CO)NC(=O)[C@H](Cc1ccccc1)NC(=O)[C@H](CC1CCCCC1)NC(=O)[C@H](CC(=O)O)NC(=O)[C@H](CCCCNC(=O)CCOCCOCCOCCOCCNC(=O)c1ccc(CNC(=O)CCCc2ccc(I)cc2)cc1)NC(=O)CN1CCN(CC(=O)O)CCN(CC(=O)O)CCN(CC(=O)O)CC1)C(=O)N[C@@H](Cc1c[nH]c2ccccc12)C(=O)N[C@@H](CO)C(N)=O [[^177Lu]Lu-uPAR-03, metal not drawn] | 13 ± 1 | 15 ± 1 | 1.5 ± 0.3 | 1.8 ± 0.3 | 0.31 ± 0.05 | 0.3 ± 0.01 | 4.8 ± 0.5 | 5.2 ± 0.1 | 1.8 ± 0.1 | 2 ± 0.1 | 4.1 ± 0.3 | 4.7 ± 0.2 | 3.1 ± 0.4 | 3.2 ± 0.2 | 7.5 ± 0.5 | 7.7 ± 0.7 | 1.3 ± 0.1 | 1.5 ± 0.1 | 1.7 ± 0.1 | 1.9 ± 0.2 | tissue uptake at 4 h (in vivo; [21]): 4 ± 0.3 %ID/g; tissue uptake at 24 h (in vivo; [21]): 7.5 ± 0.2 %ID/g; tissue uptake at 4 h (in vivo; [18]): 3.4 ± 0.4 %ID/g; tissue uptake at 24 h (in vivo; [18]): 3.6 ± 0.2 %ID/g; tissue uptake at 4 h (in vivo; [19]): 2.2 ± 0.2 %ID/g; tissue uptake at 24 h (in vivo; [19]): 3 ± 0.2 %ID/g; tissue uptake at 4 h (in vivo; [20]): 1.6 ± 0.1 %ID/g; tissue uptake at 24 h (in vivo; [20]): 1.8 ± 0.1 %ID/g; Kd (human uPAR [1]): 56 ± 8 nM; logD (physchem): 0.37 ± 0.14; remaining at 1 h, 10 MBq/200 µL (in vitro [2]): 100%; remaining at 4 h, 10 MBq/200 µL (in vitro [2]): 99 ± 1%; remaining at 24 h, 10 MBq/200 µL (in vitro [2]): 98 ± 1%; remaining at 1 h, 10 MBq/200 µL (in vitro [3]): 100 ± 1%; remaining at 4 h, 10 MBq/200 µL (in vitro [3]): 99 ± 1%; remaining at 24 h, 10 MBq/200 µL (in vitro [3]): 99 ± 2% |
| Asp-Cha-Phe-ser-arg-Tyr-Leu-Trp-Ser (DAFSRYLWS; Printed as Asp-Cha-Phe-ser-arg-Tyr-Leu-Trp-Ser. Residue 2 is Cha (L-beta-cyclohexylalanine, written as parent Ala, as in PDB 1YWH entity 2); D-Ser4; D-Arg5; Linear; C-terminal form (acid or amide) not) [AE105] | – | – | – | – | – | – | – | – | – | – | – | – | – | – | – | – | – | – | – | – | Kd (human uPAR [5]): 0.4 nM |
